Structures can show the parent of a compound that is named as a salt.
Biological target: T1, RET (Homo sapiens, UniProt P07949)
T1 construct: purchased Upstate 14-570MG
Assay: Inhibition of RET kinase activity, recombinant RET method (Kinase-Glo)
Assay type: biochemical
Settings: RET 2 μg/ml, poly-EY4 substrate, 20 μM ATP, two hours at 30° C.
Description: The inhibition of the kinase activity of the compounds of the invention is assessed by measuring their IC50 on RET.
where: • Y is the value of the luminescence • X is the logarithm of the concentration of the compound • Bottom is the minimum Y value • Top is the maximum Y value • LogIC50 is the value of X when Y is 50% from Top—Bottom.
The quantity of RET required is 2 μg/ml.
The following buffer is used for dilution of RET: 20 mM MOPS/NaOH pH7.0, 1 mM EDTA, 5% glycerol, 0.01% Brij35 (Sigma B4184), 0.1% 2-mercaptoethanol, 1 mg/ml BSA (Sigma A3059-10G).
The dilution of the compounds of the invention is distributed so as to obtain a scale of final concentrations between 10 nM and 30 μM.
After incubation of the reaction mixture for two hours at 30° C., the level of ATP that remains is assayed using the Kinase-Glo Luminescent Kinase Assay (Promega #V6712) according to the conditions recommended by the supplier. The luminescence induced is read in a plate reader (Envision-Perkin Elmer).

T1 sequence (P07949 29-1114): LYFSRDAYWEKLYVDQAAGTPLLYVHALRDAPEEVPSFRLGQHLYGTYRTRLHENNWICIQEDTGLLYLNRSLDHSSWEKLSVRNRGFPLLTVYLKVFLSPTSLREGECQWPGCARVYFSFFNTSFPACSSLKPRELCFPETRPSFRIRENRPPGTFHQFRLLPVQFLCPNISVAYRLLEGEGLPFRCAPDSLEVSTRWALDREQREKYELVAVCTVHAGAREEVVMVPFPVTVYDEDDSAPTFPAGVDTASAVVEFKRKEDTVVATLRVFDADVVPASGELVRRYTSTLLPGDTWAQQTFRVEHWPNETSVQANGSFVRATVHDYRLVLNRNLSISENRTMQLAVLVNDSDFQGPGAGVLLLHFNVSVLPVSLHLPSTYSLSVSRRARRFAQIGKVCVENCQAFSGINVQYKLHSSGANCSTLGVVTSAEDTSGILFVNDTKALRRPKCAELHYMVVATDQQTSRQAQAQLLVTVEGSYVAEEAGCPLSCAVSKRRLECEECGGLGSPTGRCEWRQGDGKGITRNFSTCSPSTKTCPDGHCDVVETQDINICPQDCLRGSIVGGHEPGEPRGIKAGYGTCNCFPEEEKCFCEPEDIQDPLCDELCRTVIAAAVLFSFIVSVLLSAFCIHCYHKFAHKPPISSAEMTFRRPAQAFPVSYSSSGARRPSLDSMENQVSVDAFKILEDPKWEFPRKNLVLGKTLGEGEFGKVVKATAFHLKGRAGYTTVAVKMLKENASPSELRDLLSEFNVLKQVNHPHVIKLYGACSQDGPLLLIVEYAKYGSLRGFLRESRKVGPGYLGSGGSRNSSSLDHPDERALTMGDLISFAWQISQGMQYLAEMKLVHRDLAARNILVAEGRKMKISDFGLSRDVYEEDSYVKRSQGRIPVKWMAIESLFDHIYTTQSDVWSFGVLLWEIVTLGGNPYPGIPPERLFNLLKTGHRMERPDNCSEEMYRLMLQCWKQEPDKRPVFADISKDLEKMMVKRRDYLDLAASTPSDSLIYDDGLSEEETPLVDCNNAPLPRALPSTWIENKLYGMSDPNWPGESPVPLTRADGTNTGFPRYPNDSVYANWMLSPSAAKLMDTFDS

SMILES	IC50 [µM]
CCOC(=O)c1c[nH]c2c(=O)[nH]c3ccc(-c4ccc(S(C)(=O)=O)cc4)cc3c12 [Compound 245, 8-(4-Methanesulfonyl-phenyl)-4-oxo-4,5-dihydro-3H-pyrrolo[2,3-c]quinoline-1-ethyl carboxylate]	1 to 10
CCOC(=O)c1c[nH]c2c(=O)[nH]c3cc(OC)ccc3c12 [Compound 213, 7-Methoxy-4-oxo-4,5-dihydro-3H-pyrrolo[2,3-c]quinoline-1-ethyl carboxylate]	1 to 10
CCOC(=O)c1c[nH]c2c(=O)[nH]c3ccc(-c4ccc5c(ccn5C(=O)OC(C)(C)C)c4)cc3c12 [Compound 253, 8-(1-tert-Butoxycarbonyl-1H-indol-5-yl)-4-oxo-4,5-dihydro-3H-pyrrolo[2,3-c]quinoline-1-ethyl carboxylate]	1 to 10
CCCOC(=O)c1c[nH]c2c(=O)[nH]c3ccc(S(=O)(=O)N4CCC(N(C)C(=O)OC(C)(C)C)C4)cc3c12 (stereo not drawn) [Compound 169, 8-[3-(tert-Butoxycarbonyl-methyl-amino)-pyrrolidine-1-sulfonyl]-4-oxo-4,5-dihydro-3H-pyrrolo[2,3-c]quinoline-1-propyl carboxylate]	1 to 10
CCOC(=O)c1c[nH]c2c(=O)[nH]c3ccc(-c4csc(C)n4)cc3c12 [Compound 278, 8-(2-Methyl-thiazol-4-yl)-4-oxo-4,5-dihydro-3H-pyrrolo[2,3-c]quinoline-1-ethyl carboxylate]	1 to 10
CCCNC(=O)c1c[nH]c2c(=O)[nH]c3ccc(S(=O)(=O)N(C)C)cc3c12 [Compound 109, N-Propyl-8-dimethylsulfamoyl-4-oxo-4,5-dihydro-3H-pyrrolo[2,3-c]quinoline-1-carboxamide]	10 to 100
CCCOC(=O)c1c[nH]c2c(=O)[nH]c3ccc(S(=O)(=O)N(C)CCNC)cc3c12 [Compound 139, 8-[Methyl-(2-methylamino-ethyl)-sulfamoyl]-4-oxo-4,5-dihydro-3H-pyrrolo[2,3-c]quinoline-1-propyl carboxylate hydrochloride]	< 0.1
CN(c1ccc(F)cc1)S(=O)(=O)c1ccc2[nH]c(=O)c3[nH]cc(C(=O)O)c3c2c1 [Compound 103, 8-[(4-Fluorophenyl)-methyl-sulfamoyl]-4-oxo-4,5-dihydro-3H-pyrrolo[2,3-c]quinoline-1-carboxylic acid]	10 to 100
CCCOC(=O)c1c[nH]c2c(=O)[nH]c3ccc(S(=O)(=O)N(C[C@H]4CCCN4C(=O)OC(C)(C)C)C4CC4)cc3c12 [Compound 147, (R)-8-[(1-tert-Butoxycarbony-pyrrolidin-2-ylmethyl)-cyclopropyl-sulfamoyl]-4-oxo-4,5-dihydro-3H-pyrrolo[2,3-c]quinoline-1-propyl carboxylate]	1 to 10
CN(c1ccc(F)cc1)S(=O)(=O)c1ccc2[nH]c(=O)c3[nH]cc(C(=O)OCCN)c3c2c1 [Compound 105, 8-[(4-Fluorophenyl)-methyl-sulfamoyl]-4-oxo-4,5-dihydro-3H-pyrrolo[2,3-c]quinoline-1-2-aminoethyl trifluoroacetate carboxylate]	10 to 100
CCOC(=O)c1c[nH]c2c(=O)[nH]c3ccc(-c4csc(Nc5ccc(Cl)c(Cl)c5)n4)cc3c12 [Compound 273, 8-[2-(3,4-Dichlorophenylamino)-thiazol-4-yl]-4-oxo-4,5-dihydro-3H-pyrrolo[2,3-c]quinoline-1-ethyl carboxylate]	1 to 10
CCCOC(=O)c1c[nH]c2c(=O)[nH]c3ccc(S(=O)(=O)N4CC[C@@H](N(C)C)C4)cc3c12 [Compound 172]	1 to 10
O=C(OCc1ccccc1)c1c[nH]c2c(=O)[nH]c3ccccc3c12 [Compound 74, 4-Oxo-4,5-dihydro-3H-pyrrolo[2,3-c]quinoline-1-carboxylate benzyl]	1 to 10
O=C(NCCCO)c1c[nH]c2c(=O)[nH]c3ccccc3c12 [Compound 85, N-(3-Hydroxy-propyl)-4-oxo-4,5-dihydro-3H-pyrrolo[2,3-c]quinoline-1-carboxamide]	10 to 100
CCOC(=O)c1c[nH]c2c(=O)[nH]c3ccc(NS(=O)(=O)c4ccc(NC(C)=O)cc4)cc3c12 [Compound 52, 8-(4-Acetylamino-benzenesulfonylamino)-4-oxo-4,5-dihydro-3H-pyrrolo[2,3-c]quinoline-1-ethyl carboxylate]	1 to 10
CN(c1ccc(F)cc1)S(=O)(=O)c1ccc2[nH]c(=O)c3[nH]cc(C(=O)OCCNC(=O)OC(C)(C)C)c3c2c1 [Compound 106, 2-tert-Butoxycarbonylaminoethyl 8-[(4-fluorophenyl)-methyl-sulfamoyl]-4-oxo-4,5-dihydro-3H-pyrrolo[2,3-c]quinoline-1-carboxylate]	10 to 100
CCOC(=O)c1c[nH]c2c(=O)[nH]c3ccc(N(C)C)cc3c12 [Compound 62, 8-Dimethylamino-4-oxo-4,5-dihydro-3H-pyrrolo[2,3-c]quinoline-1-ethyl carboxylate]	1 to 10

Other lines, results leading:

IC50 [µM]	SMILES
0.1 to 1	CCOC(=O)c1c[nH]c2c(=O)[nH]c3ccc(S(=O)(=O)Nc4ccccc4OC)cc3c12 [Compound 7, 8-(2-Methoxy-phenylsulfamoyl)-4-oxo-4,5-dihydro-3H-pyrrolo[2,3-c]quinoline-1-ethyl carboxylate]
0.1 to 1	CCOC(=O)c1c[nH]c2c(=O)[nH]c3ccc(NS(C)(=O)=O)cc3c12 [Compound 38, 8-Methanesulfonylamino-4-oxo-4,5-dihydro-3H-pyrrolo[2,3-c]quinoline-1-ethyl carboxylate]
0.1 to 1	CCCOC(=O)c1c[nH]c2c(=O)[nH]c3ccc(S(=O)(=O)N(C)CC4OCCO4)cc3c12 [Compound 129, 8-[1,3]Dioxolan-2-ylmethyl-methyl-sulfamoyl)-4-oxo-4,5-dihydro-3H-pyrrolo[2,3-c]quinoline-1-propyl carboxylate]
< 0.1	CCCOC(=O)c1c[nH]c2c(=O)[nH]c3ccc(S(=O)(=O)N(CCO)C(C)C)cc3c12 [Compound 173, 8-[(2-Hydroxy-ethyl)isopropyl-sulfamoyl]-4-oxo-4,5-dihydro-3H-pyrrolo[2,3-c]quinoline-1-propyl carboxylate]
0.1 to 1	CCOC(=O)c1c[nH]c2c(=O)[nH]c3ccc(S(=O)(=O)NC4CCCCC4)cc3c12 [Compound 30, 8-Cyclohexylsulfamoyl-4-oxo-4,5-dihydro-3H-pyrrolo[2,3-c]quinoline-1-ethyl carboxylate]
< 0.1	CCCOC(=O)c1c[nH]c2c(=O)[nH]c3ccc(S(=O)(=O)N(CC)[C@H]4CCN(C)C4)cc3c12 [Compound 161, (S)-8-[Ethyl-(1-methyl-pyrrolidin-3-yl)-sulfamoyl]-4-oxo-4,5-dihydro-3H-pyrrolo[2,3-c]quinoline-1-propyl carboxylate]
0.1 to 1	CCCOC(=O)c1c[nH]c2c(=O)[nH]c3cc(Cl)c(S(=O)(=O)N(C)C)cc3c12 [Compound 189, 7-Chloro-8-dimethylsulfamoyl-4-oxo-4,5-dihydro-3H-pyrrolo[2,3-c]quinoline-1-propyl carboxylate]
0.1 to 1	CCCOC(=O)c1c[nH]c2c(=O)[nH]c3ccc(-c4cccc(S(C)(=O)=O)c4)cc3c12 [Compound 254, 8-(3-Methanesulfonyl-phenyl)-4-oxo-4,5-dihydro-3H-pyrrolo[2,3-c]quinoline-1-propyl carboxylate]
0.1 to 1	CCOC(=O)c1c[nH]c2c(=O)[nH]c3ccc(Sc4cccc(NC(C)=O)c4)cc3c12 [Compound 225, 8-(3-Acetylaminophenylsulfanyl)-4-oxo-4,5-dihydro-3H-pyrrolo[2,3-c]quinoline-1-ethyl carboxylate]
0.1 to 1	CCOC(=O)c1c[nH]c2c(=O)[nH]c3ccc(S(=O)(=O)NC)cc3c12 [Compound 27, 8-Methylsulfamoyl-4-oxo-4,5-dihydro-3H-pyrrolo[2,3-c]quinoline-1-ethyl carboxylate]
0.1 to 1	CCCOC(=O)c1c[nH]c2c(=O)[nH]c3ccc(S(=O)(=O)NC4CC4)cc3c12 [Compound 124, 8-Cyclopropylsulfamoyl-4-oxo-4,5-dihydro-3H-pyrrolo[2,3-c]quinoline-1-propyl carboxylate]
< 0.1	CCOC(=O)c1c[nH]c2c(=O)[nH]c3ccc(S(=O)(=O)Nc4ccc(F)cc4C)cc3c12 [Compound 17, 8-(4-Fluoro-2-methyl-phenylsulfamoyl)-4-oxo-4,5-dihydro-3H-pyrrolo[2,3-c]quinoline-1-ethyl carboxylate]
0.1 to 1	CCCOC(=O)c1c[nH]c2c(=O)[nH]c3cc(F)c(S(=O)(=O)N(C)C4CC4)cc3c12 [Compound 187, 8-(Cyclopropyl-methyl-sulfamoyl)-7-fluoro-4-oxo-4,5-dihydro-3H-pyrrolo[2,3-c]quinoline-1-propyl carboxylate]
0.1 to 1	CS(=O)(=O)c1cccc(-c2ccc3[nH]c(=O)c4[nH]cc(C(=O)OC5CCCC5)c4c3c2)c1 [Compound 256, 8-(3-Methanesulfonyl-phenyl)-4-oxo-4,5-dihydro-3H-pyrrolo[2,3-c]quinoline-1-cyclopentyl carboxylate]
< 0.1	CCOC(=O)c1c[nH]c2c(=O)[nH]c3ccc(S(=O)(=O)Nc4ccc(O)cc4)cc3c12 [Compound 98, 8-(4-Hydroxy-phenylsulfamoyl)-4-oxo-4,5-dihydro-3H-pyrrolo[2,3-c]quinoline-1-ethyl carboxylate]
0.1 to 1	CCOC(=O)c1c[nH]c2c(=O)[nH]c3ccc(C#CCN(C)C)cc3c12 [Compound 203, 8-(3-Dimethylamino-prop-1-ynyl)-4-oxo-4,5-dihydro-3H-pyrrolo[2,3-c]quinoline-1-ethyl carboxylate]
